Data published in paper PMC8691714 (Cancer Research Communications, 2021).

How the values were obtained:
[1] = cited from earlier work
[2] = In vivo pharmacokinetic study in mice, intravenous ibrutinib (plasma); settings: for AUC(0-t) / Cmax: female, FVB, mouse, plasma, iv, 1 mg/kg, ibrutinib 1 mg/kg IV, mean (SD); for AUC(0-t): Ibrutinib AUC(0-last); for Cmax: Ibrutinib Cmax
Experimental: (§1) Experiments were performed with male and female mice from inbred wild-type strains (FVB, C57BL/6, DBA) or with age- and sex-matched genetically engineered mice with a deficiency of the Cyp3a locus [(8 genes; FVB.129P2-Cyp3a13^tm1Ahs Del (5Cyp3a57-Cyp3a59)1Ahs); ref. [16]; CYP3A^−/−], a deficiency of the intestinal transporter OATP2B1 (ref. [17]; OATP2B1 ^−/−), or the hepatic transporter OATP1B2 (ref. [18]; OATP1B2 ^−/−). […] The studies were approved by the University Laboratory Animal Resources Animal Care and Use Committee at The Ohio State University (Columbus, OH). […] For in vivo studies, drugs were prepared in standard vehicles ([19, 20]). Details regarding the preparation of drugs are provided in the Supplementary Methods.
(§2) Pharmacokinetic studies were performed as described previously ([21]). Further details are provided in the Supplementary Methods.
(§3) The lower limit of quantification was 5 ng/mL, using 5-μL sample volumes. Details regarding the analytic method are provided in the Supplementary Methods.
(§4) Ketoconazole was prepared for oral administration as a 10-mg/mL suspension in PEG400, and cobicistat as a 6-mg/mL suspension in corn oil.
(§5) Pharmacokinetic studies were performed as previously described.

[3] = In vivo pharmacokinetic study in mice, oral ibrutinib (plasma, LC-MS/MS); settings: for AUC(0-t) / Cmax / bioavailability: plasma, po; for AUC(0-t): Ibrutinib AUC(0-last); for Cmax: Ibrutinib Cmax; for increase in ibrutinib AUC: male FVB wild-type mice; for systemic levels of ibrutinib: ibrutinib 10 mg/kg orally
Experimental: as §1, §2, §3, §4, §5
The analytical equipment consisted of a Vanquish UHPLC system, a TSQ Quantum Ultra triple quadrupole mass spectrometer from Thermo Fisher Scientific, and Thermo Trace Finder General Quan system software (version 3.3). An Accucore Vanquish C18 column (100 × 2.1 mm, dp = 1.5 μm; Thermo Fisher Scientific) was protected by a corresponding XBridgeBEH C18, 5-μm guard column. The injection volume of sample was 5.0 μL. The temperature of the autosampler rack was 4 °C, and the temperature of the column was 40 °C. Mobile phase A consisted of water with 0.1% (v/v) formic acid and mobile phase B consisted of acetonitrile: methanol (1:3) with 0.1% (v/v) formic acid. The total run time was 5 min. The mobile phase was delivered at a flow rate of 0.4 mL/min, and the optimized gradient contained time-varying amounts of mobile phase B, as follows: 0-0.5 min, 10% B; 0.5-1.5 min, 95% B; 1.5-2.9 min, 95% B; 2.9-3.0 min, 10% B; and 3.0-5.0 min, 10% B. The mass spectrometric assay settings included a positive voltage applied to the ESI capillary of 3500 V, a capillary temperature of 342 °C, and a vaporizer temperature of 358 °C. Argon was used a collision gas at a pressure of 1.5 mTorr. […] For sample extraction by protein precipitation, 5 µL of plasma, 5 µL of microsomal suspension, or 10 µL of homogenized tissue were added to a tube containing 60 µL of internal standard solution and 20 µL of methanol. Samples were then vortex-mixed, centrifuged at 13,000 rpm for 9.5 min, and supernatants collected and stored frozen until analysis. […] The lower limit of quantification was 5 ng/mL, using 5-µL sample volumes.

[4] = set-up: method as in earlier work; settings: acid dissociation constant; PBPK model parameter; ref [17, 18] and Drugbank; cited from earlier work
[5] = population PK model estimate, mice
[6] = set-up: method as in earlier work; settings: unbound drug in the plasma; PBPK model parameter; ref [17, 18] and Drugbank; cited from earlier work
[7] = female CYP3A(-/-) mice, co-treatment cobicistat
[8] = female CYP3A(-/-) mice, co-treatment corn oil
[9] = female wild-type FVB mice, co-treatment cobicistat
[10] = female wild-type FVB mice, co-treatment corn oil
[11] = female, C57BL/6, mouse, 10 mg/kg, female OATP2B1(-/-) mice, ibrutinib 10 mg/kg PO, no co-treatment, mean (SD)
[12] = female, C57BL/6, mouse, 10 mg/kg, female wild-type C57BL/6 mice, ibrutinib 10 mg/kg PO, no co-treatment, mean (SD)
[13] = female, DBA, mouse, 10 mg/kg, female OATP1B2(-/-) mice, ibrutinib 10 mg/kg PO, no co-treatment, mean (SD)
[14] = female, DBA, mouse, 10 mg/kg, female wild-type DBA mice, ibrutinib 10 mg/kg PO, no co-treatment, mean (SD)
[15] = female, FVB, mouse, 4 mg/kg, female wild-type FVB mice, ibrutinib 4 mg/kg oral, cotreatment cobicistat 30 mg/kg, mean (SE)
[16] = female, FVB, mouse, 10 mg/kg, female CYP3A-/- mice, ibrutinib 10 mg/kg oral, cotreatment cobicistat 30 mg/kg, mean (SE)
[17] = female, FVB, mouse, 10 mg/kg, female CYP3A-/- mice, ibrutinib 10 mg/kg oral, cotreatment corn oil, mean (SE)
[18] = female, FVB, mouse, 10 mg/kg, female CYP3A-/- mice, ibrutinib 10 mg/kg oral, no cotreatment, mean (SE)
[19] = female, FVB, mouse, 10 mg/kg, female wild-type FVB mice, ibrutinib 10 mg/kg oral single dose, cotreatment cobicistat 30 mg/kg, mean (SE)
[20] = female, FVB, mouse, 10 mg/kg, female wild-type FVB mice, ibrutinib 10 mg/kg oral single dose, cotreatment corn oil, mean (SE)
[21] = female, FVB, mouse, 10 mg/kg, female wild-type FVB mice, ibrutinib 10 mg/kg oral, cotreatment PEG400, mean (SE)
[22] = female, FVB, mouse, 10 mg/kg, female wild-type FVB mice, ibrutinib 10 mg/kg oral, cotreatment cobicistat 30 mg/kg, steady-state, mean (SE)
[23] = female, FVB, mouse, 10 mg/kg, female wild-type FVB mice, ibrutinib 10 mg/kg oral, cotreatment corn oil, steady-state, mean (SE)
[24] = female, FVB, mouse, 10 mg/kg, female wild-type FVB mice, ibrutinib 10 mg/kg oral, cotreatment ketoconazole 50 mg/kg, mean (SE)
[25] = female, FVB, mouse, 10 mg/kg, female wild-type FVB mice, ibrutinib 10 mg/kg oral, no cotreatment, mean (SE)
[26] = female, FVB, mouse, 30 mg/kg, female wild-type FVB mice, ibrutinib 30 mg/kg oral, no cotreatment, mean (SE)
[27] = male, C57BL/6, mouse, 10 mg/kg, male OATP2B1(-/-) mice, ibrutinib 10 mg/kg PO, no co-treatment, mean (SD)
[28] = male, C57BL/6, mouse, 10 mg/kg, male wild-type C57BL/6 mice, ibrutinib 10 mg/kg PO, no co-treatment, mean (SD)
[29] = male, FVB, mouse, 10 mg/kg, male wild-type FVB mice, ibrutinib 10 mg/kg PO, co-treatment No Vehicle (cobicistat experiment), mean (SD)
[30] = male, FVB, mouse, 10 mg/kg, male wild-type FVB mice, ibrutinib 10 mg/kg PO, co-treatment None (ketoconazole experiment), mean (SD)
[31] = male, FVB, mouse, 10 mg/kg, male wild-type FVB mice, ibrutinib 10 mg/kg PO, co-treatment PEG400, mean (SD)
[32] = male, FVB, mouse, 10 mg/kg, male wild-type FVB mice, ibrutinib 10 mg/kg PO, co-treatment cobicistat, mean (SD)
[33] = male, FVB, mouse, 10 mg/kg, male wild-type FVB mice, ibrutinib 10 mg/kg PO, co-treatment corn oil, mean (SD)
[34] = male, FVB, mouse, 10 mg/kg, male wild-type FVB mice, ibrutinib 10 mg/kg PO, co-treatment ketoconazole, mean (SD)

C=CC(=O)N1CCC[C@@H](n2nc(-c3ccc(Oc4ccccc4)cc3)c3c(N)ncnc32)C1 [Ibrutinib]
experimentally observed increase in ibrutinib exposure ([1]; itraconazole-ibrutinib interaction, ref [8]): 10 fold | increase in ibrutinib exposure predicted from a pharmacokinetic model ([1]; itraconazole-ibrutinib interaction, ref [23]): 21 fold | oral bioavailability ([1]; patients, ref [4, 5]): < 3% | AUC(0-t) [2, 7]: 895 ng·h/mL | AUC(0-t) [2, 8]: 1170 ng·h/mL | AUC(0-t) [2, 9]: 1010 ng·h/mL | AUC(0-t) [2, 10]: 521 ng·h/mL | Cmax [2, 7]: 1440 ng/mL | Cmax [2, 8]: 1860 ng/mL | Cmax [2, 9]: 1540 ng/mL | Cmax [2, 10]: 1410 ng/mL | increase in ibrutinib exposure ([2]; intravenous ibrutinib, CYP3A deficiency vs wild-type): 2 fold | effect of cobicistat on exposure to ibrutinib ([2]; intravenous ibrutinib, CYP3A-/- mice): did not further increase exposure | increase in ibrutinib exposure ([2]; intravenous ibrutinib, wild-type mice, oral cobicistat pretreatment vs vehicle): 2 fold | ibrutinib AUC increase ([3]; CYP3A-/- mice compared with wild-type mice, oral ibrutinib): about 8 fold | pharmacokinetic profile of ibrutinib with vs without cobicistat ([3]; CYP3A-/- mice, oral ibrutinib, P > 0.05): similar | increase in exposure to ibrutinib ([3]; female wild-type mice, oral ibrutinib 10 mg/kg 30 minutes after oral ketoconazole 50 mg/kg vs vehicle): about 11 fold | AUC(0-t) [3, 11]: 1750 ng·h/mL | AUC(0-t) [3, 12]: 1450 ng·h/mL | Cmax [3, 11]: 1250 ng/mL | Cmax [3, 12]: 1420 ng/mL | AUC(0-t) [3, 13]: 2100 ng·h/mL | AUC(0-t) [3, 14]: 2720 ng·h/mL | Cmax [3, 13]: 2170 ng/mL | Cmax [3, 14]: 1960 ng/mL | AUC(0-t) [3, 15]: 1200 ng·h/mL | Cmax [3, 15]: 589 ng/mL | bioavailability ([3]; female, FVB, mouse, 4 mg/kg, female wild-type FVB mice, ibrutinib 4 mg/kg oral, cotreatment cobicistat 30 mg/kg): 58% | AUC(0-t) [3, 16]: 1660 ng·h/mL | AUC(0-t) [3, 17]: 1410 ng·h/mL | AUC(0-t) [3, 18]: 2350 ng·h/mL | AUC(0-t) [3, 19]: 2600 ng·h/mL | AUC(0-t) [3, 20]: 284 ng·h/mL | AUC(0-t) [3, 21]: 768 ng·h/mL | AUC(0-t) [3, 22]: 2250 ng·h/mL | AUC(0-t) [3, 23]: 459 ng·h/mL | AUC(0-t) [3, 24]: 8320 ng·h/mL | AUC(0-t) [3, 25]: 301 ng·h/mL | Cmax [3, 16]: 845 ng/mL | Cmax [3, 17]: 1390 ng/mL | Cmax [3, 18]: 1760 ng/mL | Cmax [3, 19]: 1440 ng/mL | Cmax [3, 20]: 292 ng/mL | Cmax [3, 21]: 663 ng/mL | Cmax [3, 22]: 925 ng/mL | Cmax [3, 23]: 394 ng/mL | Cmax [3, 24]: 3100 ng/mL | Cmax [3, 25]: 430 ng/mL | bioavailability ([3]; female, FVB, mouse, 10 mg/kg, female CYP3A-/- mice, ibrutinib 10 mg/kg oral, cotreatment cobicistat 30 mg/kg): 32% | bioavailability ([3]; female, FVB, mouse, 10 mg/kg, female CYP3A-/- mice, ibrutinib 10 mg/kg oral, cotreatment corn oil): 27% | bioavailability ([3]; female, FVB, mouse, 10 mg/kg, female CYP3A-/- mice, ibrutinib 10 mg/kg oral, no cotreatment): 45% | bioavailability ([3]; female, FVB, mouse, 10 mg/kg, female wild-type FVB mice, ibrutinib 10 mg/kg oral single dose, cotreatment cobicistat 30 mg/kg): 50% | bioavailability ([3]; female, FVB, mouse, 10 mg/kg, female wild-type FVB mice, ibrutinib 10 mg/kg oral single dose, cotreatment corn oil): 5.5% | bioavailability ([3]; female, FVB, mouse, 10 mg/kg, female wild-type FVB mice, ibrutinib 10 mg/kg oral, cotreatment cobicistat 30 mg/kg, steady-state): 43% | bioavailability ([3]; female, FVB, mouse, 10 mg/kg, female wild-type FVB mice, ibrutinib 10 mg/kg oral, cotreatment corn oil, steady-state): 8.8% | bioavailability ([3]; female, FVB, mouse, 10 mg/kg, female wild-type FVB mice, ibrutinib 10 mg/kg oral, no cotreatment): 5.8% | AUC(0-t) [3, 26]: 1710 ng·h/mL | Cmax [3, 26]: 554 ng/mL | bioavailability ([3]; female, FVB, mouse, 30 mg/kg, female wild-type FVB mice, ibrutinib 30 mg/kg oral, no cotreatment): 11% | increase in ibrutinib AUC ([3]; cobicistat): 7 fold | increase in ibrutinib AUC ([3]; ketoconazole): 10 fold | AUC(0-t) [3, 27]: 1770 ng·h/mL | AUC(0-t) [3, 28]: 1390 ng·h/mL | Cmax [3, 27]: 1630 ng/mL | Cmax [3, 28]: 1380 ng/mL | AUC(0-t) [3, 29]: 520 ng·h/mL | AUC(0-t) [3, 30]: 429 ng·h/mL | AUC(0-t) [3, 31]: 636 ng·h/mL | AUC(0-t) [3, 32]: 4340 ng·h/mL | AUC(0-t) [3, 33]: 663 ng·h/mL | AUC(0-t) [3, 34]: 6640 ng·h/mL | Cmax [3, 29]: 360 ng/mL | Cmax [3, 30]: 404 ng/mL | Cmax [3, 31]: 348 ng/mL | Cmax [3, 32]: 1360 ng/mL | Cmax [3, 33]: 243 ng/mL | Cmax [3, 34]: 1260 ng/mL | systemic levels of ibrutinib ([3]; mice lacking OATP1B2 vs wild-type): not altered | systemic levels of ibrutinib ([3]; mice lacking OATP2B1 vs wild-type): not altered | increase in exposure to ibrutinib ([3]; wild-type mice, oral ibrutinib 10 mg/kg after cobicistat 30 mg/kg, single dose or steady-state (day 5)): about 9 fold | pKa [4]: 3.78 | IIV Ka ([5]; inter-individual variability): 0.209 | IIV Lag ([5]; inter-individual variability): 0.0264 | IIV Vc ([5]; inter-individual variability): 0.167 | IIV Vp ([5]; inter-individual variability): 0.295 | Ka (absorption rate constant) [5]: 0.340 h⁻¹ | Lag (lag time) [5]: 0.0324 h | RV IBU ([5]; residual variability): 0.425 | fu, plasma [6]: 0.027
